Test results from ChEMBL document CHEMBL5696439 (Cancer Res, 2010).
Calls of active or inactive are those of the source. No cut-off for these calls is given here.

Tests used:
[1] = tested on: Tyrosine-protein kinase ABL1 (Homo sapiens), P00519 [T315I]; test: Inhibition of recombinant human full-length His-tagged ABL1 T315I mutant expressed in insect cells at 2 uM using Tyr 02 as substrate measured after 1 hr by Z'-LYTE assay relative to control; conditions: Insect cell
[2] = target: Casein kinase I isoform epsilon (Homo sapiens) (UniProt P49674); test: Inhibition of recombinant human full-length His-tagged CSNK1E expressed in insect cells at 2 uM using Ser/Thr 11 as substrate measured after 1 hr by Z'-LYTE assay relative to control; conditions: Insect cell
[3] = target: Casein kinase II subunit alpha' (Homo sapiens) (UniProt P19784); test: Inhibition of recombinant human full-length GST-tagged CSNK2A2 expressed in insect cells at 2 uM using Ser/Thr 11 as substrate measured after 1 hr by Z'-LYTE assay relative to control; conditions: Insect cell
[4] = target: Serine/threonine-protein kinase DCLK2 (Homo sapiens) (UniProt Q8N568); test: Inhibition of recombinant human full-length GST-tagged DCAMKL2 expressed in baculovirus expression system at 2 uM using Ser/Thr 17 as substrate measured after 1 hr by Z'-LYTE assay relative to control
[5] = target: Dual specificity tyrosine-phosphorylation-regulated kinase 4 (Homo sapiens) (UniProt Q9NR20); test: Inhibition of recombinant human full-length GST-tagged DYRK4 expressed in insect cells at 2 uM using Ser/Thr 09 as substrate measured after 1 hr by Z'-LYTE assay relative to control; conditions: Insect cell
[6] = target: G protein-coupled receptor kinase 5 (Homo sapiens) (UniProt P34947); test: Inhibition of recombinant human full-length GST-tagged GRK5 expressed in insect cells at 2 uM using Ser/Thr 16 as substrate measured after 1 hr by Z'-LYTE assay relative to control; conditions: Insect cell
[7] = target: Mitogen-activated protein kinase 3 (Homo sapiens) (UniProt P27361); test: Inhibition of recombinant human full length GST-tagged MAPK3 expressed in E. coli at 2 uM using Ser/Thr 03 as substrate measured after 1 hr by Z'-LYTE assay relative to control
[8] = target: MAP kinase-activated protein kinase 2 (Homo sapiens) (UniProt P49137); test: Inhibition of recombinant human full length His-tagged MAPKAPK2 expressed in E. coli at 2 uM using Ser/Thr 04 as substrate measured after 1 hr by Z'-LYTE assay relative to control
[9] = target: Megakaryocyte-associated tyrosine-protein kinase (Homo sapiens) (UniProt P42679); test: Inhibition of recombinant human full length His-tagged MATK expressed in E. coli at 2 uM using Tyr 01 as substrate measured after 1 hr by Z'-LYTE assay relative to control
[10] = target: Serine/threonine-protein kinase Nek1 (Homo sapiens) (UniProt Q96PY6); test: Inhibition of recombinant human GST-tagged NEK1 (1-505 residues) expressed in insect cells at 2 uM using Ser/Thr 07 as substrate measured after 1 hr by Z'-LYTE assay relative to control; conditions: Insect cell
[11] = target: NT-3 growth factor receptor (Homo sapiens) (UniProt Q16288); test: Inhibition of recombinant human His-tagged NTRK3 (510-825 residues) expressed in baculovirus expression system at 2 uM using Tyr 01 as substrate measured after 1 hr by Z'-LYTE assay relative to control
[12] = tested on: Platelet-derived growth factor receptor alpha (Homo sapiens), P16234 [D842V]; test: Inhibition of recombinant human GST-tagged PDGFRA D842V mutant (550-1089 residues) expressed in baculovirus expression system at 2 uM using Tyr 04 as substrate measured after 1 hr by Z'-LYTE assay relative to control
[13] = target: Serine/threonine-protein kinase pim-1 (Homo sapiens) (UniProt P11309); test: Inhibition of recombinant human full length His-tagged PIM1 expressed in insect cells at 2 uM using Ser/Thr 07 as substrate measured after 1 hr by Z'-LYTE assay relative to control; conditions: Insect cell
[14] = target: Serine/threonine-protein kinase pim-2 (Homo sapiens) (UniProt Q9P1W9); test: Inhibition of recombinant human full length GST-tagged PIM2 expressed in insect cells at 2 uM using Ser/Thr 07 as substrate measured after 1 hr by Z'-LYTE assay relative to control; conditions: Insect cell
[15] = target: Protein kinase C iota type (Homo sapiens) (UniProt P41743); test: Inhibition of recombinant human full length His-tagged PRKCI expressed in baculovirus expression system at 2 uM using Ser/Thr 07 as substrate measured after 1 hr by Z'-LYTE assay relative to control
[16] = target: Serine/threonine-protein kinase D3 (Homo sapiens) (UniProt O94806); test: Inhibition of recombinant human full length GST-tagged PRKCN expressed in insect cells at 2 uM using Ser/Thr 17 as substrate measured after 1 hr by Z'-LYTE assay relative to control; conditions: Insect cell
[17] = tested on: RAF proto-oncogene serine/threonine-protein kinase (Homo sapiens), P04049 [Y340D,Y341D]; test: Inhibition of recombinant human GST-tagged RAF1 Y340D/Y341D double mutant (306-648 residues) expressed in insect cells at 2 uM using Ser/Thr 03 as substrate measured after 1 hr by Z'-LYTE assay relative to control; conditions: Insect cell
[18] = target: Testis-specific serine/threonine-protein kinase 2 (Homo sapiens) (UniProt Q96PF2); test: Inhibition of recombinant human full length His-tagged STK22B expressed in insect cells at 2 uM using Ser/Thr 04 as substrate measured after 1 hr by Z'-LYTE assay relative to control; conditions: Insect cell
[19] = tested on: NCI-H1975; test: Antiproliferative activity against human NCI-H1975 cells assessed as cell growth inhibition incubated for 24 hrs by MTS assay; format: functional, cell-based; conditions: NCI-H1975, 24 h
[20] = tested on: MDA-MB-361; test: Induction of apoptosis in HER2 hyperactive human MDA-MB-361 cells assessed as massive cell death at 0.001 to 100 micromol/L incubated for 48 hrs by FACS analysis; format: functional, cell-based; conditions: dose 0.001-100 µmol/L
[21] = tested on: BT-474; test: Induction of apoptosis in human BT-474 cells assessed as increase in PARP cleavage at 0.3 to 3 micromol/L incubated for 48 hrs by Western blot analysis; format: functional, cell-based; conditions: dose 0.3-3 µmol/L
[22] = tested on: HT-29; test: Induction of apoptosis in human HT-29 cells assessed as increase in PARP cleavage at 0.3 to 3 micromol/L incubated for 48 hrs by Western blot analysis; format: functional, cell-based; conditions: dose 0.3-3 µmol/L
[23] = tested on: MDA-MB-361; test: Antitumor activity against human MDA-MB-361 cells assessed as block the accumulation of HIF-2alpha in low oxygen at 0.3 micromol/L incubated for 24 hrs by immunoblot analysis; format: functional, cell-based; conditions: dose 0.3 µmol/L
[24] = tested on: A549; test: Antitumor activity against human A549 cells xenografted in female nude mouse model assessed as substantial regression in large tumor growth at 50 mg/kg, po qd administered as 5 days on/2 days off regimen for 4 cycles; format: functional, organism-based; conditions: time 28.0 day
[25] = target: mTORC2 (Homo sapiens) (UniProt P42345+Q6R327+Q9BVC4+Q9BPZ7); conditions: U-87 MG, dose 0.025-2 µmol/L, time 6.0 hrs
[26] = tested on: A498; test: cells; conditions: Homo sapiens, A498, 24 h
Description: Antiproliferative activity against human A498 cells assessed as cell growth inhibition incubated for 1 days by MTS assay

Mitogen-activated protein kinase 3 (Homo sapiens), sequence (P27361 whole entry): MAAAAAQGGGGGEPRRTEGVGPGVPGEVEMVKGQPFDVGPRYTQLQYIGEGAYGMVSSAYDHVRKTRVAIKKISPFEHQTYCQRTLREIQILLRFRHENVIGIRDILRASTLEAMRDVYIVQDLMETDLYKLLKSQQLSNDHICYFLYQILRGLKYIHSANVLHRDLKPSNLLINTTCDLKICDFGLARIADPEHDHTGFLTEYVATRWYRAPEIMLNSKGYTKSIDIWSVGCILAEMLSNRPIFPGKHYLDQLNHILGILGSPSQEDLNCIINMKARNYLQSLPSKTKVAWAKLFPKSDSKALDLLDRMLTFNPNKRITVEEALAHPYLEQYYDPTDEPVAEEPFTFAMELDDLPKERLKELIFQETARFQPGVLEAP
Casein kinase I isoform epsilon (Homo sapiens), sequence (P49674 whole entry, looked up, canonical isoform): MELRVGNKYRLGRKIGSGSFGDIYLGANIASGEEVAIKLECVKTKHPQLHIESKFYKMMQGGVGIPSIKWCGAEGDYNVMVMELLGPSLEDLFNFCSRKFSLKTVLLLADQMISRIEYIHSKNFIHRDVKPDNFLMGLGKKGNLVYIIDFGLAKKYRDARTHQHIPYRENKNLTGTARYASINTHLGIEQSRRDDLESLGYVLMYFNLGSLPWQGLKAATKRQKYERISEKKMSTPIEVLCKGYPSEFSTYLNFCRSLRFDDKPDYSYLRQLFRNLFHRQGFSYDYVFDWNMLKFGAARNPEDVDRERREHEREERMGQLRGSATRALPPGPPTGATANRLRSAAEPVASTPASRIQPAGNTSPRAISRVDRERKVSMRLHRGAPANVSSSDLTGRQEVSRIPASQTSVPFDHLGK
MAP kinase-activated protein kinase 2 (Homo sapiens), sequence (P49137 whole entry, looked up): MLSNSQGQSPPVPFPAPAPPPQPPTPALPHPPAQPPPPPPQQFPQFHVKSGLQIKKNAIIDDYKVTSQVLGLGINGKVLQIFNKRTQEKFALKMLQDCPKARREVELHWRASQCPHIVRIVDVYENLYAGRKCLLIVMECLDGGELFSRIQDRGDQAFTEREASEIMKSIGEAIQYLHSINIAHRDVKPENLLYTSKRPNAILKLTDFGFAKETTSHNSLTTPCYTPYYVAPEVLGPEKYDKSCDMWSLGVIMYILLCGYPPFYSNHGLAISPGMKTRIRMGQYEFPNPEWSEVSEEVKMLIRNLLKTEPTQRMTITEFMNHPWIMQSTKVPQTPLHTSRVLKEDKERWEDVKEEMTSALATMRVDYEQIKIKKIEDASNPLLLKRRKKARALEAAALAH
Dual specificity tyrosine-phosphorylation-regulated kinase 4 (Homo sapiens), sequence (Q9NR20 whole entry): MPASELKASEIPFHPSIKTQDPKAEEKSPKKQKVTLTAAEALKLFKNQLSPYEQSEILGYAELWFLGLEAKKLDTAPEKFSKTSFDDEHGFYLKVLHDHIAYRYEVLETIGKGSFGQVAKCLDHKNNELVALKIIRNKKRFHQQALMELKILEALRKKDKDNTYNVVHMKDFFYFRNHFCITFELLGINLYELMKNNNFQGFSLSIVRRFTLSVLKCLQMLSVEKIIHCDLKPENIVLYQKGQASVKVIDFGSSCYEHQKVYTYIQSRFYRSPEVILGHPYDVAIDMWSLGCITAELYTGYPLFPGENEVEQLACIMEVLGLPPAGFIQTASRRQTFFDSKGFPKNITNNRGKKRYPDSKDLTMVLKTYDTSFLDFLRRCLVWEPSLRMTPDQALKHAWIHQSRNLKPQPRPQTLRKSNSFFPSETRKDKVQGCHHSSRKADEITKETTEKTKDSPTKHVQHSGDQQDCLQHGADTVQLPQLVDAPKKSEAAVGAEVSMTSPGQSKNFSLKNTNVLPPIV
Casein kinase II subunit alpha' (Homo sapiens), sequence (P19784 whole entry, looked up): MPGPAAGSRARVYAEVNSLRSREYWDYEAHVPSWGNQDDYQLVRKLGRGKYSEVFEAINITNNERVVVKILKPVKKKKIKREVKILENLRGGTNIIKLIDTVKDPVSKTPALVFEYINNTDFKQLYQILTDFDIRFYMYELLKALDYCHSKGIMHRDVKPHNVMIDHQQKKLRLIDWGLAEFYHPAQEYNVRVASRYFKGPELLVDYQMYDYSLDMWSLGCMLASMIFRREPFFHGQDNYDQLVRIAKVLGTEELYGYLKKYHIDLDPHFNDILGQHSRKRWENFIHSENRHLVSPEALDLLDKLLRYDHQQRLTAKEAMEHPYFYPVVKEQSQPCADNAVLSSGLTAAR
Testis-specific serine/threonine-protein kinase 2 (Homo sapiens), sequence (Q96PF2 whole entry): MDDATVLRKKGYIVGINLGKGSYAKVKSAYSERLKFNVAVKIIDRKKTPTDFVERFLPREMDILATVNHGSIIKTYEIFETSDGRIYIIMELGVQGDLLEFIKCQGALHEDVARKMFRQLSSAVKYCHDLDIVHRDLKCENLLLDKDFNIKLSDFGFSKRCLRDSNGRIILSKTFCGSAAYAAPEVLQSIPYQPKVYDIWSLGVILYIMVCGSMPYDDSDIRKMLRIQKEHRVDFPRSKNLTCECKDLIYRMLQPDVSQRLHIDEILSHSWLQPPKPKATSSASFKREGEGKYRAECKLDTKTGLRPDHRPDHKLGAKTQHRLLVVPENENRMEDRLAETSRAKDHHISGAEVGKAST
Serine/threonine-protein kinase Nek1 (Homo sapiens), sequence (Q96PY6 whole entry, the tested form may be a part): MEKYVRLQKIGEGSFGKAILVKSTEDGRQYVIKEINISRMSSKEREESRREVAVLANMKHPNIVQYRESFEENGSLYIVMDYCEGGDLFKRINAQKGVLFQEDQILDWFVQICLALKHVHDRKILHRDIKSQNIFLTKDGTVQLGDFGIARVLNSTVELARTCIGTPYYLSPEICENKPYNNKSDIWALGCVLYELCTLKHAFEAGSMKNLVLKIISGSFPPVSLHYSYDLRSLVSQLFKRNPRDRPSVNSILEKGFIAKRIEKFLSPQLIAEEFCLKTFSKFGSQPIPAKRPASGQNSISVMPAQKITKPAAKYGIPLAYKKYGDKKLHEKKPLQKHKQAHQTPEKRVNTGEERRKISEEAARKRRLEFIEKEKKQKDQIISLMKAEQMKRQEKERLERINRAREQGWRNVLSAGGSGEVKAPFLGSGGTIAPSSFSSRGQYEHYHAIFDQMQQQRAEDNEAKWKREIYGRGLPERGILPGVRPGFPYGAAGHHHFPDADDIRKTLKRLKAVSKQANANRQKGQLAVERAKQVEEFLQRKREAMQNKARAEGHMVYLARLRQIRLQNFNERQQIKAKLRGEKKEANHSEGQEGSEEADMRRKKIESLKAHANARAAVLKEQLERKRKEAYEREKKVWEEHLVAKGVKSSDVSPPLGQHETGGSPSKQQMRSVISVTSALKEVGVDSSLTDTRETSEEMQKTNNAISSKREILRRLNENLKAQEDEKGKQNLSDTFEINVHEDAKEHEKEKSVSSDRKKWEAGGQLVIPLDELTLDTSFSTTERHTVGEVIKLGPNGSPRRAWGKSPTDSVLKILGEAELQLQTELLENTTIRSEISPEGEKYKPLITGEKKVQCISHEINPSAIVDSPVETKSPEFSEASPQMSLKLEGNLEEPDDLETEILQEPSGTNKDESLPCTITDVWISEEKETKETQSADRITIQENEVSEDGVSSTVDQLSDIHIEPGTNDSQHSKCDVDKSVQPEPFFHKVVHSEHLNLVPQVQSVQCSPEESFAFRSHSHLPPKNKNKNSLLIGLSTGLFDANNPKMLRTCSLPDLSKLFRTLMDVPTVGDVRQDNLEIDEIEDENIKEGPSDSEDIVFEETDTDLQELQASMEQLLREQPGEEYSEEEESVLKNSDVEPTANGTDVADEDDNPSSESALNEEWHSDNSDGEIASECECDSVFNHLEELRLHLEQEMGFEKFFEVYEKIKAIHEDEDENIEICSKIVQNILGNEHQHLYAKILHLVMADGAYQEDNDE
RAF proto-oncogene serine/threonine-protein kinase (Homo sapiens), P04049 [Y340D,Y341D], sequence (P04049 whole entry Y340D/Y341D, the tested form may be a part): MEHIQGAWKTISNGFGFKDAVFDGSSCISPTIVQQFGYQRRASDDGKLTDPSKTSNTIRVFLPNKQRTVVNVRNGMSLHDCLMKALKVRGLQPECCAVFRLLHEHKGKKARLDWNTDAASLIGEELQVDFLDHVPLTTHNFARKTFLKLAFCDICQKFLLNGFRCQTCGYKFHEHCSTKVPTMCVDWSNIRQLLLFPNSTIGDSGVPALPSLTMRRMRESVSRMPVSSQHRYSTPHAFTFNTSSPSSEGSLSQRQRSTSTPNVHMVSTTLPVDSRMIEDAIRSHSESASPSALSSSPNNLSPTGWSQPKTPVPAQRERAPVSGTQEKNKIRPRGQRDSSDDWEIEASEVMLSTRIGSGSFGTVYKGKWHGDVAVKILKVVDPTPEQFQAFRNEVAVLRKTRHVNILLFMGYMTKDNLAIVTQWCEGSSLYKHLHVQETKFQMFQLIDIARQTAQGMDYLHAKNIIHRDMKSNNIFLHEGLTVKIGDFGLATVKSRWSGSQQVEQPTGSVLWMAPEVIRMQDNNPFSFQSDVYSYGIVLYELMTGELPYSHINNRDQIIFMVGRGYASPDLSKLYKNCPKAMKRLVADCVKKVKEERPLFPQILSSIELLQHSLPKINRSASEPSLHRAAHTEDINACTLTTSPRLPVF
Serine/threonine-protein kinase pim-1 (Homo sapiens), sequence (P11309 whole entry, looked up): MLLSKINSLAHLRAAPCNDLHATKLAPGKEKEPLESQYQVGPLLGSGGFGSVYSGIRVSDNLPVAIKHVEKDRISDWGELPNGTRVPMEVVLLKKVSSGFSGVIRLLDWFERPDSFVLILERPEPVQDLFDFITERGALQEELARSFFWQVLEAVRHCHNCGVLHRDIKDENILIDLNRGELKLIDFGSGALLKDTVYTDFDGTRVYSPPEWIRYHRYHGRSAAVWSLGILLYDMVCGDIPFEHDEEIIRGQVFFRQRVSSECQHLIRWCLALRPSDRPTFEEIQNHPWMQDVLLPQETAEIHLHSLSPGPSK
Serine/threonine-protein kinase pim-2 (Homo sapiens), sequence (Q9P1W9 whole entry, looked up): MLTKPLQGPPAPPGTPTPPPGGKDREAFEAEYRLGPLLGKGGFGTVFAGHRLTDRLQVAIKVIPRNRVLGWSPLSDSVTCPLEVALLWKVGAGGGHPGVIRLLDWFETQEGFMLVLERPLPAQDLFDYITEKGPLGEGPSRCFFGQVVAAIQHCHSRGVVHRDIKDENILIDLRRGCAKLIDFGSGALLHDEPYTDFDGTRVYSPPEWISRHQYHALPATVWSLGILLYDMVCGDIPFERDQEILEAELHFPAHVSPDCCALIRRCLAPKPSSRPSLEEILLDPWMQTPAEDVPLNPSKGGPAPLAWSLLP

For `CNC(=O)Nc1ccc(-c2nc(N3CC4CCC(C3)O4)c3cnn(C4CCC5(CC4)OCCO5)c3n2)cc1`, which inhibition [1] is on record?
The inhibition was 0%.

And the inhibition [2]?
The inhibition was 4%.

What about the inhibition [3] of the same molecule?
Its inhibition is 3%.

What about the inhibition [4] of the same molecule?
Its inhibition is 2%.

And the inhibition [5]?
The inhibition was 4%.

And the inhibition [6]?
Its inhibition is -4%.

And the inhibition [7]?
Its inhibition is 1%.

What about the inhibition [8] of the same molecule?
The inhibition was 4%.

And the inhibition [9]?
Its inhibition is 2%.

And the inhibition [10]?
The inhibition was 7%.

And the inhibition [11]?
The inhibition was 5%.

What about the inhibition [12] of the same molecule?
The inhibition was 4%.

And the inhibition [13]?
Its inhibition is 1%.

What about the inhibition [14] of the same molecule?
The inhibition was 3%.

And the inhibition [15]?
Its inhibition is 6%.

What about the inhibition [16] of the same molecule?
Its inhibition is 4%.

What about the inhibition [17] of the same molecule?
Its inhibition is 12%.

What about the inhibition [18] of the same molecule?
The inhibition was 2%.

And the IC50 [19]?
Its IC50 is 70 nM.

What about the Activity [20] of the same molecule?
The Activity was “Active”.

What about the Activity [21] of the same molecule?
Its Activity is “Active”.

And the Activity [22]?
The Activity was “inactive”.

And the Activity [23]?
The Activity was “Active”.

What about the Activity [24] of the same molecule?
Its Activity is “Active”.

What about the inhibition [25] of the same molecule?
Its inhibition is “Active”.

And the IC50 [26]?
Its IC50 is over 20 µM.
